Test results: patent US10815276B2, “Cell penetrating peptides and methods of making and using thereof” (Entrada Therapeutics, Inc., priority 2014, dated 2020)
Several values for one entry are separate records, joined by “and”; a condition that tells them apart may be missing. Identical values can stand only once. Like-named read-outs stand apart in the source and are kept apart here. Starred links: 1 amine or outer side, 2 acyl side, 3 side chain; linkers in the order of their positions; H or OH if unused. Non-standard residues stand in square brackets, D forms with d. Residues, ends and D or L forms follow the SMILES beside them. No end group written: not given here. *: point of attachment. RhodamineB = CCN(CC)c1ccc2c(-c3ccccc3C(=O)*)c3ccc(=[N+](CC)CC)cc-3oc2c1; Trimesoyl = O=C(c1cc(C(=O)[*:2])cc(C(=O)[*:3])c1)[*:1]; 2Nal = N[C@@H](Cc1ccc2ccccc2c1)C(=O)O; Dap = NC[C@H](N)C(=O)O

How the values were obtained:
HeLa cells [1] = assay: Effect on endocytosis of dextran^Alexa488, flow cytometry; assay type: cell-based, human; conditions: 1 μM cFΦR4, 100 μM dextran^Alexa488, 30 min
Procedure: HeLa cells were treated with clear DMEM containing no supplement, 1 μM cFΦR4 only, 100 μM dextran^Alexa488 only, or both 1 μM cFΦR4 and 100 μM dextran^Alexa488. MFI, mean fluorescence intensity.
Following adherence, cells were treated with clear DMEM containing no supplement, 1 μM cFΦR4 peptide, 100 μM dextran^Alexa488 (Life Technologies, D-22910), or both 1 μM cyclic peptide and 100 μM dextran^Alexa488 for 30 min under standard cell culture conditions. The cells were washed with DPBS twice, removed from the plate with 0.25% trypsin, diluted into clear DMEM containing 10% FBS, pelleted at 300 g for 5 min, washed once with DPBS and resuspended in 200 μL of DPBS. Whole-cell dextran uptake was analyzed on a BD Accuri C6 flow cytometer using the manufacturer FL1 laser and filter set.

[2] = test system: HEK293, MCF-7, A549, H1650, and H1299; assay: MTT cytotoxicity assay; assay type: cell-based, human
Procedure: MTT assays were performed to evaluate cyclic peptide's cytotoxicity against several mammalian cell lines (Mosmann, T. J. Immunol. Methods, 1983, 65, 55-63). One hundred μL of MCF-7, HEK293, H1299, H1650, A549 (1×10^5 cells/mL) cells were placed in each well of a 96-well culture plate and allowed to grow overnight. Varying concentrations of the peptide (5 or 50 μM) were added to the each well and the cells were incubated at 37° C. with 5% CO2 for 24 to 72 h. Ten μL of MTT stock solution was added into each well. Addition of 10 μL of the solution to the growth medium (no cell) was used as a negative control. The plate was incubated at 37° C. for 4 h. Then 100 μL of SDS-HCl solubilizing buffer was added into each well, and the resulting solution was mixed thoroughly. The plate was incubated at 37° C. for another 4 h. The absorbance of the formazan product was measured at 570 nm using a Molecular Devices Spectramax M5 plate reader. Each experiment was performed in triplicates and the cells without any peptide added were treated as control.

[3] = test system: cell type (e.g., HeLa cells); assay: Cellular uptake efficiency of cyclic CPPs; assay type: cell-based; conditions: relative to cFΦR4 (290-1F, 100%)
Procedure: In particular embodiments, uptake efficiency is determined by comparing (i) the amount of a cyclic cell-penetrating peptide of the invention internalized by a cell type (e.g., HeLa cells) to (ii) the amount of c(FΦRRRRQ) (290-1F) internalized by the same cell type. To measure cellular uptake efficiency, the cell type may be incubated in the presence of a cell-penetrating peptide of the invention for a specified period of time (e.g., 30 minutes, 1 hour, 2 hours, etc.) after which the amount of the cell-penetrating peptide internalized by the cell is quantified. Separately, the same concentration of c(FΦRRRRQ) (290-1F) is incubated in the presence of the cell type over the same period of time, and the amount of the second peptide internalized by the cell is quantified. Quantification can be achieved by fluorescently labeling the cell-penetrating peptide (e.g., with a FTIC dye) and measuring the fluorescence intensity using techniques well-known in the art.
(§1) Also discussed herein are the CPP sequences in Table 16. All uptake/delivery efficiencies are in Table 17 are relative to that of cFΦR4 (290-1F, 100%). SUV1 are small unilamellar vesicles that mimic the neutral outer membrane of mammalian cells [45% phosphatidylcholine (PC), 20% phosphatidylethanolamine (PE), 20% sphingomyelin (SM), and 15% cholesterol (CHO)]. SUV2 are small unilamellar vesicles that mimic the negatively charged endosomal membrane of mammalian cells [50% PC, 20% PE, 10% phosphatidylinositol (PI), and 20% bis(monoacylglycerol)phosphate].

[4] = test system: SUV1 (vesicles that mimic the neutral outer membrane of mammalian cells); assay: Fluorescence polarization membrane binding, SUV1
Description: as §1
(§2) Measurements were carried out fluorescence polarization using FITC-labeled cyclic peptides against increasing concentrations of vesicles. Experiments were performed at pH 7.4 and 5.5 (pH inside late endosomes).

[5] = test system: SUV2 (vesicles that mimic the negatively charged endosomal membrane of mammalian cells); assay: Fluorescence polarization membrane binding, SUV2
Description: as §1, §2

mammalian cells = conditions: Qian et al. 2013; cited from earlier work
HeLa cells [6] = assay: Cytoplasmic delivery of pCAP-containing peptides, flow cytometry; conditions: pCAP-containing peptide as cargo
Aqueous solubility = assay type: physicochemical
HeLa cells [7] = assay: FACS uptake of FITC-labeled peptides; assay type: cell-based, human; conditions: 5 μM, 2 h
[8] = test system: α-chymotrypsin and trypsin; assay: Peptide proteolysis stability assay; assay type: in vitro ADME; conditions: 37° C.
Procedure: The stability tests were carried out by slightly modifying a previously reported procedure (Frackenpohl, J et al. Chembiochem 2001, 2, 445). 24 μL of 1.5 mM peptide solution was incubated at 37° C. with 30 μL 50 μM of α-chymotrypsin and 30 μL 50 μM of trypsin in 200 μL of working buffer (50 mM Tris-HCl, pH 8.0, NaCl (100 mM), CaCl2 (10 mM)). At various time points (0-12 h), 40 μL aliquots were withdrawn and mixed with 40 μL of 15% trichloroacetic acid and incubated at 4° C. overnight. The final mixture was centrifuged at 15,000 rpm for 10 min in a microcentrifuge, and the supernatant was analyzed by reversed-phase HPLC equipped with a C18 column (Waters). The amount of remaining peptide (%) was determined by integrating the area underneath the peptide peak (monitored at 214 nm) and compared with that of control reaction (no proteases).

HeLa cells [9] = assay: Live-cell confocal microscopy of FITC-labeled peptides; assay type: cell-based, human; conditions: 5 μM
Procedure: To detect peptide internalization, 1 mL of HeLa cell suspension (5×10^4 cells) was seeded in a 35 mm glass-bottomed microwell dish (MatTek) and cultured overnight. Cells were gently washed with DPBS twice and treated with FITC labeled peptides (5 μM) and dextran^Rho (0.5 mg mL^−1) in phenol-red free DMEM containing 1% serum at 37° C. for 1 h in the presence of 5% CO2. After removal of the medium, the cells were gently washed with DPBS twice and incubated with 5 μM DRAQS in DPBS for 10 min. The cells were again washed with DPBS twice and imaged on a Visitech Infinity 3 Hawk 2D-array live cell imaging confocal microscope. Images were captured under the same parameters and adjusted under the same setting using MetaMorph (Molecular Devices).

pKa of CAP fluorophore = assay type: physicochemical; conditions: deprotonated state fluorescent
NIH 3T3 cells = assay: Anti-pY western blot of global pY protein levels; assay type: cell-based; conditions: 0-500 nM, 2 h
Procedure: NIH 3T3 cells were cultured in full growth media to reach 80% confluence. The cells were starved in serum free media for 3 h and treated with different concentrations of cFΦR4-PTP1B or untagged PTP1B for 2 h, followed by 30 min incubation in media supplemented with 1 mM sodium pervanadate. The solutions were removed and the cells were washed with cold DPBS twice. The cells were detached and lysed in 50 mM Tris-HCl, pH 7.4, 150 mM NaCl, 1% NP-40, 10 mM sodium pyrophosphate, 5 mM iodoacetic acid, 10 mM NaF, 1 mM EDTA, 2 mM sodium pervanadate, 0.1 mg/mL phenylmethanesulfonyl fluoride, 1 mM benzamidine, and 0.1 mg/mL trypsin inhibitor. After 30 min incubation on ice, the cell lysate was centrifuged at 15,000 rpm for 25 min in a microcentrifuge. The total cellular proteins were separated by SDS-PAGE and transferred electrophoretically to PVDF membrane, which was immunoblotted using anti-pY antibody 4G10.
NIH 3T3 cells were incubated for 2 h in the presence of untagged PTP1B or cFΦR4-PTP1B and their global pY protein levels were analyzed by anti-pY western blotting (FIG. 12A). […] Several proteins in the 150-200 kD range were completely dephosphorylated upon the addition of 62 nM cFΦR4-PTP1B, whereas proteins of ˜80 kD remained phosphorylated at 500 nM cFΦR4-PTP1B.

HEK293 cells = assay: FACS uptake of rhodamine-labeled bicyclic vs monocyclic peptide; assay type: cell-based, human
Description: In recent years, there has been much interest in cyclic peptides as therapeutic agents and biomedical research tools (Driggers, E M et al. Nat. Rev. Drug Discov., 2008, 7, 608-624; Marsault, E and Peterson, M L. J. Med. Chem., 2011, 54, 1961-2004). For example, cyclic peptides are effective for inhibition of protein-protein interactions (Lian, W et al. J. Am. Chem. Soc., 2013, 135, 11990-11995; Liu, T et al. ACS Comb. Sci., 2011, 13, 537-546; Dewan, V et al. ACS Chem. Biol., 2012, 7, 761-769; Wu, X et al. Med. Chem. Commun., 2013, 4, 378-382), which are challenging targets for conventional small molecules. A major obstacle in developing cyclic peptide therapeutics is that they are generally impermeable to the cell membrane (Kwon, Y U and Kodadek, T. Chem. Biol., 2007, 14, 671-677; Rezai, T et al. J. Am. Chem. Soc., 2006, 128, 2510-2511; Chatterjee, J et al. Acc. Chem. Res., 2008, 41, 1331-1342). […] The bicyclic peptides were readily synthesized by forming three amide bonds between a trimesoyl scaffold and three amino groups on the corresponding linear peptide (i.e., the N-terminal amine, the side chain of a C-terminal diaminopropionic acid (Dap), and the side chain of a lysine (or ornithine, Dap) imbedded in between the CPP and target-binding motifs) (Lian, W et al. J. Am. Chem. Soc., 2013, 135, 11990-11995). […]

N=C(N)NCCC[C@@H]1NC(=O)[C@H](CCCNC(=N)N)NC(=O)[C@H](CCCNC(=N)N)NC(=O)[C@H](Cc2ccc3ccccc3c2)NC(=O)[C@H](Cc2ccccc2)NC(=O)[C@H](CCC(N)=O)NC(=O)[C@H](CCCNC(=N)N)NC1=O [cFΦR4, cyclo(FΦRRRRQ)] (cyclo(F[2Nal]RRRRQ))
Increase in internalization of dextran^Alexa488 (HeLa cells [1]): 15%
Growth inhibition after 72 h ([2]; 50 μM): up to 20%
Growth inhibition after 24 or 48 h ([2]; up to 50 μM): no significant growth inhibition
Uptake Efficiency (%) [3]: 100%
Kd ([4]; pH 5.5, read-out: Membrane Binding KD (mM) SUV1 pH 5.5): 1.1 mM
Kd ([4]; pH 7.4, read-out: Membrane Binding KD (mM) SUV1 pH 7.4): 4 mM
Kd ([5]; pH 5.5, read-out: Membrane Binding KD (mM) SUV2 pH 5.5): 0.63 mM
Kd ([5]; pH 7.4, read-out: Membrane Binding KD (mM) SUV2 pH 7.4): 0.66 mM
Efficiency of entering cytoplasm and nucleus higher than nonaarginine (R9) (mammalian cells): 2-5 fold
Delivery efficiency higher than R9, Antp, and Tat (HeLa cells [6]): 4-12 fold and 3.7-12 fold

cyclo(FΦRRRRQ)-FFFF-K(Rho) (cyclo(F[2Nal]RRRRQFFFFK(RhodamineB)); not fully specified (C-terminus, bridges); printed as cyclo(FΦRRRRQ)-FFFF-K(Rho)) [cFΦR4-F4]
Aqueous solubility (Aqueous solubility): poor

CH3CH2CH2CO-FΦRRRRUK(FITC)-NH2 [Peptide 2 (Example 2)]
Mean fluorescence intensity (MFI), total intracellular FITC fluorescence (HeLa cells [7]): 5530 arbitrary units (AU)
Half-life with protease cocktail [8]: ~20 min
Intracellular FITC fluorescence (confocal) (HeLa cells [9]): much weaker intracellular fluorescence

NC(Cc1cc(=O)oc2cc(O)ccc12)C(=O)O (centres unmarked) [CAP, coumaryl aminopropionic acid]
pKa (pKa of CAP fluorophore): 7.8

cFΦR4-PTP1B: cFΦR4 conjugated to ybbR-tagged PTP1B catalytic domain via a thioether bond
Global pY protein levels (NIH 3T3 cells): concentration-dependent decrease in pY levels

[Tm(AAAAA)K(RRRRΦF)J]-K(Rho) (Trimesoyl-AAAAAKRRRR[2Nal]F[Dap]K(RhodamineB); linker (positions not given here) via Trimesoyl; not fully specified (C-terminus, bridges); printed as [Tm(AAAAA)K(RRRRΦF)J]-K(Rho)) [bicyclo(FΦR4-A5)^Rho]
Uptake more efficient than corresponding monocyclic peptide (compound 17) (HEK293 cells): ~3 fold
